Drawing on patent US20240124486A1, “MACROCYCLIC TLR7 AGONIST, PREPARATION METHOD THEREFOR, PHARMACEUTICAL COMPOSITION AND USE THEREOF” (SHANGHAI VISONPHARMA CO., LTD., priority 2020, published 2024), this text covers EC50 for 51 compounds.

pEC50: −log10 of the molar value.

The target of the assay is T1, human TLR7 (Homo sapiens, UniProt Q9NYK1).
T1 construct: host or cells: HEK-Blue hTLR7 (HEK293-derived reporter cells)
T1 sequence (Q9NYK1 27-1049): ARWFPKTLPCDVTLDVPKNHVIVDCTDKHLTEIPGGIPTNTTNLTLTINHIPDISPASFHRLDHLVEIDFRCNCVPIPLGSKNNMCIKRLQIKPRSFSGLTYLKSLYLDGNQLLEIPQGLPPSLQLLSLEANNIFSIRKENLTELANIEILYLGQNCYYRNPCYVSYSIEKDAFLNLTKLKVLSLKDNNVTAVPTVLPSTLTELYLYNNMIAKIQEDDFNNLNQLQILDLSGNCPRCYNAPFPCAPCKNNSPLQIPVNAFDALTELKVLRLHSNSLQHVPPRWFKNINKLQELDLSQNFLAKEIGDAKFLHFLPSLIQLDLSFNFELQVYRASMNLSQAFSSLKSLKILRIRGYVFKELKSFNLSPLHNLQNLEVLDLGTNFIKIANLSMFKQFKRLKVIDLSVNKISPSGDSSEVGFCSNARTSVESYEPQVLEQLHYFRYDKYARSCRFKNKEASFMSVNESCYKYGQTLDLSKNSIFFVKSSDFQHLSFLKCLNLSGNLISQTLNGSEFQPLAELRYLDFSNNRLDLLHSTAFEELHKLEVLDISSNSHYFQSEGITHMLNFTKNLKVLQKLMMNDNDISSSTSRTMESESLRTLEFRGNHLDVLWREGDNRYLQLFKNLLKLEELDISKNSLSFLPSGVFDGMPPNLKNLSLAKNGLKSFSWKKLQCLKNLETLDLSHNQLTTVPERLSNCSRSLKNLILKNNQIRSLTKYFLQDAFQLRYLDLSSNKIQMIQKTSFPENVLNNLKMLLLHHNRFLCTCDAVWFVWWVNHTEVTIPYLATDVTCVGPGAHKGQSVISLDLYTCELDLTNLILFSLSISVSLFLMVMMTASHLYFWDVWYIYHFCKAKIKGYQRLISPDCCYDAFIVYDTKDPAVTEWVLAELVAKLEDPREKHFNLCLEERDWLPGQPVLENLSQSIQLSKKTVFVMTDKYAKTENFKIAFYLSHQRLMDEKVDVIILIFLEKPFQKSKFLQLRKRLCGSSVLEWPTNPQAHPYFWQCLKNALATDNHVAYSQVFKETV
Kind of assay: Agonistic activity on human TLR7 in HEK-Blue hTLR7 cell line (QUANTI-Blue reporter). The format is cell-based. To be noted: HEK-Blue hTLR7 cells, 16-22 h incubation, absorption at 630 nm; read-out: EC50 value of the agonistic effect on human TLR7. How it is done:
The TLR7 agonistic activity of the compounds of the invention in HEK-Blue™ hTLR7 cell line with stable expression of human TLR7 were assayed using the following method: • 1. Weighed the test compounds and prepared stock solutions with DMSO (Sigma) at a concentration of 10 mM. […] The highest concentration was 1 mM. • 2. The test compounds and DMSO control were diluted 10-fold in DPBS buffer (Gibco) and then added to a 96-well cell culture plate (Corning) at a volume of 20 μL/well. • 3. HEK-Blue™ hTLR7 cells (Invivogen) were digested with cell separation solution (Gibco), and counted (TC-20 cell counter, Bio-rad). Cells were diluted to 4.4E5/ml using DMEM cell medium (Gibco). Added the cells to a 96-well cell culture plate at a volume of 180 μL/well. The cells were incubated for 16-22 h at 37° C. in a 5% CO2 incubator. • 4. Prepared QUANTI-Blue detection reagent (Invivogen), and added into a new 96-well plate at a volume of 180 μL/well. Twenty μL of cell culture supernatant was transferred from the cell culture plate and added to the 96-well plate and incubated at 37° C. for 1-3 hours. • 5. Neo2 multifunctional microplate reader (Bio-Tek) was used to measure the optical absorption at 630 nm, and the EC50 was calculated by GraphPad Prism.
The agonistic effect of the compounds of the invention on human TLR7 can be determined by the above experiments, and the measured EC50 value is shown in Table 1.
On to `CS(=O)(=O)CCN1CCc2c3cc(cc2C1)Cn1c(=O)[nH]c2c(N)nc(nc21)OCCCCC3` [Compound I-59], for which the pEC50 (usually the EC50 on a negative log10 scale, so that one unit is a factor of ten) is 7.06.

Turning to `Nc1nc2nc3c1[nH]c(=O)n3Cc1cc(c3c(c1)CCNC3)C/C=C/CCO2` [Compound I-12], the pEC50 was 8.10.

For `CC(C)(C)N1Cc2c3cc(cc2C1=O)Cn1c(=O)[nH]c2c(N)nc(nc21)SCC/C=C\C3` [Compound I-52], the pEC50 was 7.72.

Regarding `Nc1nc2nc3c1[nH]c(=O)n3Cc1cc(c3c(c1)C(=O)N(CCN1CCCC1)C3)C/C=C/CCO2` [Compound I-7], the pEC50 was 8.10.

With `Nc1nc2nc3c1[nH]c(=O)n3Cc1cc(cc3c1OCC3)CCCCCO2` [Compound I-67], the pEC50 is 6.50.

For the compound `Nc1nc2nc3c1[nH]c(=O)n3Cc1cc(c3c(c1)CCN(CC(=O)O)C3)CCCCCO2` [Compound I-25], the pEC50 was 7.02.

As for `Nc1nc2nc3c1[nH]c(=O)n3Cc1cc(c3c(c1)CN(CCO)CC3)CCCCCO2` [Compound I-38], the pEC50 is 7.33.

On to `Nc1nc2nc3c1[nH]c(=O)n3Cc1cc(c3c(c1)CC(C(=O)O)O3)CC=CCCO2` (stereo not drawn) [Compound I-16], for which the pEC50 was 7.77.

As for `Nc1nc2nc3c1[nH]c(=O)n3Cc1cc(c3c(c1)CN(CC(F)(F)F)CC3)CCCCCO2` [Compound I-39], the pEC50 is 5.50.

On to `Nc1nc2nc3c1[nH]c(=O)n3Cc1cc(c3c(c1)CN(S(=O)(=O)c1ccccc1)CC3)CC=CCCO2` [Compound I-45], for which the pEC50 is 6.24.

On to `Nc1nc2nc3c1[nH]c(=O)n3Cc1cc(c3c(c1)C(=O)N(CC(=O)O)C3)C/C=C\CCO2` [Compound I-1], for which the pEC50 was 8.52.

On to `Nc1nc2nc3c1[nH]c(=O)n3Cc1cc(c3c(c1)CN(C(=O)c1ccccc1)CC3)CC=CCCO2` [Compound I-44], for which the pEC50 is 7.42.

Take `CC(C)N1CCc2c3cc(cc2C1)Cn1c(=O)[nH]c2c(N)nc(nc21)S(=O)(=O)CCCCC3` [Compound I-63]: the pEC50 was 7.51.

As for `Nc1nc2nc3c1[nH]c(=O)n3Cc1cc(c3c(c1)CCN(CC(=O)O)C3)CC=CCCO2` [Compound I-24], the negative-log EC50 (pEC50) is 7.08.

As to `Nc1nc2nc3c1[nH]c(=O)n3Cc1cc(c3c(c1)CCNC3)C/C=C\CCO2` [Compound I-11], the pEC50 was 8.22.

On to `Nc1nc2nc3c1[nH]c(=O)n3Cc1cc(c3c(c1)CN(C1CCOCC1)CC3)CCCCCO2` [Compound I-41], for which the pEC50 is 7.66.

With `Nc1nc2nc3c1[nH]c(=O)n3Cc1cc(c3c(c1)CC(C(=O)O)O3)CCCCCO2` (stereo not drawn) [Compound I-17], the pEC50 is 6.78.

Consider `COC(=O)CN1CCc2c3cc(cc2C1)Cn1c(=O)[nH]c2c(N)nc(nc21)OCCCCC3` [Compound I-49], for which the pEC50 is 7.14.

`CC(C)N1CCc2cc3cc(c2C1)OCCCCOc1nc(N)c2[nH]c(=O)n(c2n1)C3` [Compound I-64]: the negative-log EC50 (pEC50) was 7.96.

As for `Nc1nc2nc3c1[nH]c(=O)n3Cc1cc(cc3c1CN(C1CCC1)CC3)OCCCCO2` [Compound I-68], the pEC50 is 7.60.

Take `Nc1nc2nc3c1[nH]c(=O)n3Cc1cc(c3c(c1)CNCC3)CCCCCS2(=O)=O` [Compound I-61]: the pEC50 is 7.89.

On to `Nc1nc2nc3c1[nH]c(=O)n3Cc1cc(c3c(c1)C(=O)N(CCN1CCCC1)C3)C/C=C\CCO2` [Compound I-6], for which the pEC50 was 8.70.

With `Nc1nc2nc3c1[nH]c(=O)n3Cc1cc(cc3c1CNCC3)OCCCCO2` [Compound I-66], the negative logarithm of the EC50 (pEC50) is 6.41.

As for `CS(=O)(=O)N1CCc2c3cc(cc2C1)Cn1c(=O)[nH]c2c(N)nc(nc21)OCCC=CC3` [Compound I-43], the negative logarithm of the EC50 (pEC50) is 8.52.

For `Nc1nc2nc3c1[nH]c(=O)n3Cc1cc(c3c(c1)CN(CC(=O)O)CC3)CCCCCO2` [Compound I-23], the pEC50 is 7.10.

With `CC1(C(=O)O)Cc2cc3cc(c2C1)C/C=C\CCOc1nc(N)c2[nH]c(=O)n(c2n1)C3` (stereo not drawn) [Compound I-21], the pEC50 was 7.38.

Take `CN1Cc2c3cc(cc2C1=O)Cn1c(=O)[nH]c2c(N)nc(nc21)OCCC=CC3` [Compound I-4]: the negative logarithm of the EC50 (pEC50) was 8.30.

With `Nc1nc2nc3c1[nH]c(=O)n3Cc1cc3c(c(c1)OC[C@@H]1CC[C@H]1CO2)CCNC3` [Compound I-29], the pEC50 was 7.46.

As to `Nc1nc2nc3c1[nH]c(=O)n3Cc1cc(c3c(c1)CC(C(=O)O)CO3)CC=CCCO2` (stereo not drawn) [Compound I-18], the negative-log EC50 (pEC50) is 7.70.

In the case of `Nc1nc2nc3c1[nH]c(=O)n3Cc1cc(c3c(c1)CNCC3)C/C=C/CCO2` [Compound I-9], the pEC50 was 8.05.

With `Nc1nc2nc3c1[nH]c(=O)n3Cc1cc(c3c(c1)CCC(C(=O)O)O3)CC=CCCO2` (stereo not drawn) [Compound I-14], the pEC50 was 7.42.

For `Nc1nc2nc3c1[nH]c(=O)n3Cc1cc(c3c(c1)CC(C(=O)O)CO3)CCCCCO2` (stereo not drawn) [Compound I-19], the pEC50 is 6.78.

For the compound `Nc1nc2nc3c1[nH]c(=O)n3Cc1cc(c3c(c1)CNCC3)C/C=C\CCO2` [Compound I-8], the pEC50 is 7.82.

Turning to `Cc1cnc(N2CCc3c4cc(cc3C2)Cn2c(=O)[nH]c3c(N)nc(nc32)OCCCCC4)nc1` [Compound I-46], the pEC50 was 6.01.

Turning to `Nc1nc2nc3c1[nH]c(=O)n3Cc1cc(c3c(c1)CN(CC(=O)O)CC3)C/C=C/CCO2` [Compound I-22], the negative logarithm of the EC50 (pEC50) was 7.82.

For the compound `Nc1nc2nc3c1[nH]c(=O)n3Cc1cc(c3c(c1)C(=O)N(CC(=O)O)C3)CCCCCO2` [Compound I-3], the pEC50 is 8.00.

With `Nc1nc2nc3c1[nH]c(=O)n3Cc1cc3c(c(c1)OCCCO2)CCNC3` [Compound I-30], the negative logarithm of the EC50 (pEC50) was 7.12.

As for `CN1CCc2c3cc(cc2C1)Cn1c(=O)[nH]c2c(N)nc(nc21)OCCCCC3` [Compound I-36], the pEC50 was 7.70.

Consider `Nc1nc2nc3c1[nH]c(=O)n3Cc1cc(c3c(c1)CN(C1CCC1)CC3)CCCCCS2(=O)=O` [Compound I-62], for which the pEC50 is 7.89.

Regarding `Nc1nc2nc3c1[nH]c(=O)n3Cc1cc(c3c(c1)CCNC3)CCCCCO2` [Compound I-13], the pEC50 is 7.55.

`Nc1nc2nc3c1[nH]c(=O)n3Cc1cc3c(c(c1)OC[C@@H]1C[C@H]1CO2)CCNC3` [Compound I-32]: the pEC50 is 7.51.

For `Nc1nc2nc3c1[nH]c(=O)n3Cc1cc(c3c(c1)CNCC3)CCCCCCO2` [Compound I-28], the pEC50 was 6.95.

Regarding `Nc1nc2nc3c1[nH]c(=O)n3Cc1cc(c3c(c1)CN(Cc1ccncc1)CC3)CCCCCO2` [Compound I-47], the pEC50 was 6.78.

As for `CN1Cc2c3cc(cc2C1=O)Cn1c(=O)[nH]c2c(N)nc(nc21)OCCCCC3` [Compound I-5], the pEC50 is 6.95.

Take `CN1CCC=CCc2cc(cc3c2CN(C(C)(C)C)C3=O)Cn2c(=O)[nH]c3c(N)nc1nc32` [Compound I-58]: the pEC50 is 5.96.

Consider `Nc1nc2nc3c1[nH]c(=O)n3Cc1cc(c3c(c1)CCC(C(=O)O)O3)CCCCCO2` (stereo not drawn) [Compound I-15], for which the pEC50 was 6.64.

On to `Nc1nc2nc3c1[nH]c(=O)n3Cc1cc3c(c(c1)OCCCCO2)CCNC3` [Compound I-31], for which the pEC50 is 7.41.

In the case of `Nc1nc2nc3c1[nH]c(=O)n3Cc1cc(c3c(c1)CN(C1CCNCC1)CC3)CCCCCO2` [Compound I-40], the pEC50 was 6.55.

In the case of `CC(C)(CN1CCc2c3cc(cc2C1)Cn1c(=O)[nH]c2c(N)nc(nc21)OCCCCC3)C(=O)O` [Compound I-27], the pEC50 was 7.12.

In the case of `Nc1nc2nc3c1[nH]c(=O)n3Cc1cc3c(c(c1)OC[C@@H]1CCC[C@H]1CO2)CCNC3` [Compound I-33], the pEC50 is 6.85.

In the case of `Nc1nc2cc3c1[nH]c(=O)n3Cc1cc(c3c(c1)CNCC3)C/C=C/CCO2` [Compound I-34], the pEC50 is 6.88.
